Test results from patent US10781224B2, “Bis(oxymethyl)phosphinic acid and biogenic metal salts thereof as regulators of plant growth and development” (priority 2016, dated 2020).
Where “and” joins values, the source holds several entries; their conditions need not be identical. Equal entries are not always repeated.

Legend:
[1] = system: winter wheat (Vershin variety); test: Winter wheat seed treatment with BHMPA salts: germination energy and germination rate; type: in vivo
Experimental: Control—Soaking Seeds in Water;
(§1) Experimental versions—soaking seeds in BHMPA solutions and solutions of BHMPA Ca, Mg, Na, Co, Mn, Cu, and Zn salts at 1·10^−6-1·10^−12% concentrations (doses). The studies were conducted in laboratory in Petri dishes; seed bed—two layers of filter paper. 50 seeds soaked in water (control) and in the solutions of the tested compounds (experimental) were placed into each dish. Wheat, corn, and rice seeds were exposed for one hour.
Analysis was conducted according to the government standards GOST 12038-84 “Crop seeds. Technical conditions for determining the germination energy and germination rate”, GOST 12044-93 “Crop seeds. Methods for determining disease contamination.”
(§2) Seed germination energy and rate were calculated in percent as an arithmetic mean of the four experimental results (germination energy on the 4th day, wheat germination on the 8th day, rice and corn germination—on the 7th day). Germination was determined based on the germinating power indicators (length of the roots and sprouts and their wet and dry mass per 100 shoots).
(§3) The effect of pre-sowing seed treatment with the claimed BHMPA salts of biogenic metals was studied on winter wheat (Vershin variety), corn (Krasnodar 385 MV variety), and rice (Diamant variety).

[2] = system: corn (Krasnodar 385 MV variety); test: Corn seed treatment with BHMPA salts: germinating power; type: in vivo
Experimental: as §1, §2, §3
The above data describe the seed viability only at the initial stage of germination, while the germination ability at the later stage of germination is defined by the initial germinating power. The method for the determination of the germinating power comprises measuring the height of the sprouts and primary roots, as well as the biomass and the dry mass thereof per 100 seedlings. [M. A. Kartuzova. Initial Germinating Power as Method of Biological Assessment of Seed Quality. Selection and Seed Farming, #2, 1953].

[3] = winter wheat Vershin, 1·10^−6% solution
[4] = winter wheat Vershin, 1·10^−7% solution
[5] = winter wheat Vershin, 1·10^−8% solution
[6] = winter wheat Vershin, 1·10^−9% solution
[7] = winter wheat Vershin, 1·10^−10% solution
[8] = winter wheat Vershin, 1·10^−11% solution
[9] = winter wheat Vershin, 1·10^−12% solution
[10] = winter wheat, comparative study vs Melaphen, 1·10^−9% solution
[11] = corn seeds, solution concentration 1 · 10^−6%, copper salt of BHMPA
[12] = corn seeds, solution concentration 1 · 10^−7%, copper salt of BHMPA
[13] = corn seeds, solution concentration 1 · 10^−8%, copper salt of BHMPA
[14] = corn seeds, solution concentration 1 · 10^−9%, copper salt of BHMPA
[15] = corn seeds, solution concentration 1 · 10^−10%, copper salt of BHMPA
[16] = corn seeds, solution concentration 1 · 10^−11%, copper salt of BHMPA
[17] = corn seeds, solution concentration 1 · 10^−12%, copper salt of BHMPA

Copper BHMPA Salt [Cu-salt]
Germination energy [1, 3]: 81.0% | Germination rate [1, 3]: 84.0% | Germination energy [1, 4]: 87.3% | Germination rate [1, 4]: 90.0% | Germination energy [1, 5]: 91.4% | Germination rate [1, 5]: 96.0% | Germination energy [1, 6]: 94.9% | Germination rate [1, 6]: 98.0% and 94.3% | Germination rate ([1]; winter wheat Vershin, 1·10^−9% solution, listed as Cu): 98.0% | Germination energy [1, 7]: 92.1% | Germination rate [1, 7]: 96.7% | Germination energy [1, 8]: 91.7% | Germination rate [1, 8]: 94.0% | Germination energy [1, 9]: 87.5% | Germination rate [1, 9]: 90.0% | Germination energy [1, 10]: 94.7% | Germination rate [1, 10]: 98.7% | optimum concentration for treating corn seeds before sowing ([2]; corn): 1·10^−8% | Length, root [2, 11]: 5.2 cm | Length, root, + % to control [2, 11]: 8% | Length, sprout [2, 11]: 4.2 cm | Length, sprout, + % to control [2, 11]: 20% | Mass, dry, root [2, 11]: 1.27 g/100 plantlings | Mass, dry, root, + % to control [2, 11]: 7% | Mass, dry, sprout [2, 11]: 1.01 g/100 plantlings | Mass, dry, sprout, + % to control [2, 11]: 2% | Mass, wet, root [2, 11]: 8.99 g/100 plantlings | Mass, wet, root, + % to control [2, 11]: 11% | Mass, wet, sprout [2, 11]: 7.21 g/100 plantlings | Mass, wet, sprout, + % to control [2, 11]: 15% | Length, root [2, 12]: 5.4 cm | Length, root, + % to control [2, 12]: 12.5% | Length, sprout [2, 12]: 4.6 cm | Length, sprout, + % to control [2, 12]: 31% | Mass, dry, root [2, 12]: 1.38 g/100 plantlings | Mass, dry, root, + % to control [2, 12]: 16% | Mass, dry, sprout [2, 12]: 1.09 g/100 plantlings | Mass, dry, sprout, + % to control [2, 12]: 10% | Mass, wet, root [2, 12]: 9.81 g/100 plantlings | Mass, wet, root, + % to control [2, 12]: 21% | Mass, wet, sprout [2, 12]: 7.94 g/100 plantlings | Mass, wet, sprout, + % to control [2, 12]: 27% | Length, root [2, 13]: 5.6 cm | Length, sprout [2, 13]: 4.8 cm | Length, sprout, + % to control [2, 13]: 37% | Mass, dry, root [2, 13]: 1.53 g/100 plantlings | Mass, dry, root, + % to control [2, 13]: 28.5% | Mass, dry, sprout [2, 13]: 1.17 g/100 plantlings | Mass, dry, sprout, + % to control [2, 13]: 18% | Mass, wet, root [2, 13]: 10.67 g/100 plantlings | Mass, wet, root, + % to control [2, 13]: 31% | Mass, wet, sprout [2, 13]: 8.82 g/100 plantlings | Mass, wet, sprout, + % to control [2, 13]: 41% | Length, root [2, 14]: 5.3 cm | Length, root, + % to control [2, 14]: 10% | Length, sprout [2, 14]: 4.7 cm | Length, sprout, + % to control [2, 14]: 34% | Mass, dry, root [2, 14]: 1.50 g/100 plantlings | Mass, dry, root, + % to control [2, 14]: 26% | Mass, dry, sprout [2, 14]: 1.13 g/100 plantlings | Mass, dry, sprout, + % to control [2, 14]: 14% | Mass, wet, root [2, 14]: 9.58 g/100 plantlings | Mass, wet, root, + % to control [2, 14]: 18% | Mass, wet, sprout [2, 14]: 8.75 g/100 plantlings | Mass, wet, sprout, + % to control [2, 14]: 40% | Length, root [2, 15]: 5.1 cm | Length, root, + % to control [2, 15]: 6% | Length, sprout [2, 15]: 4.4 cm | Length, sprout, + % to control [2, 15]: 26% | Mass, dry, root [2, 15]: 1.35 g/100 plantlings | Mass, dry, root, + % to control [2, 15]: 13% | Mass, dry, sprout [2, 15]: 1.07 g/100 plantlings | Mass, dry, sprout, + % to control [2, 15]: 8% | Mass, wet, root [2, 15]: 9.13 g/100 plantlings | Mass, wet, root, + % to control [2, 15]: 12% | Mass, wet, sprout [2, 15]: 7.88 g/100 plantlings | Mass, wet, sprout, + % to control [2, 15]: 26% | Length, root [2, 16]: 5.0 cm | Length, root, + % to control [2, 16]: 4% | Length, sprout [2, 16]: 3.9 cm | Length, sprout, + % to control [2, 16]: 11% | Mass, dry, root [2, 16]: 1.25 g/100 plantlings | Mass, dry, root, + % to control [2, 16]: 5% | Mass, dry, sprout [2, 16]: 0.97 g/100 plantlings | Mass, dry, sprout, + % to control [2, 16]: −2% | Mass, wet, root [2, 16]: 8.61 g/100 plantlings | Mass, wet, root, + % to control [2, 16]: 6% | Mass, wet, sprout [2, 16]: 6.79 g/100 plantlings | Mass, wet, sprout, + % to control [2, 16]: 9% | Length, root [2, 17]: 4.8 cm | Length, root, + % to control [2, 17]: 0% | Length, sprout [2, 17]: 3.7 cm | Length, sprout, + % to control [2, 17]: 6% | Mass, dry, root [2, 17]: 1.21 g/100 plantlings | Mass, dry, root, + % to control [2, 17]: 2% | Mass, dry, sprout [2, 17]: 0.92 g/100 plantlings | Mass, dry, sprout, + % to control [2, 17]: −7% | Mass, wet, root [2, 17]: 8.37 g/100 plantlings | Mass, wet, root, + % to control [2, 17]: 3% | Mass, wet, sprout [2, 17]: 6.35 g/100 plantlings | Mass, wet, sprout, + % to control [2, 17]: 2% | Length, root, + % to control ([2]; corn, 1·10^−8% solution): 16% | Length, sprout, + % to control ([2]; corn, 1·10^−8% solution): 37% | Mass, dry, root, + % to control ([2]; corn, 1·10^−8% solution): 28.5% | Mass, dry, sprout, + % to control ([2]; corn, 1·10^−8% solution): 18% | Mass, wet, root, + % to control ([2]; corn, 1·10^−8% solution): 31% | Mass, wet, sprout, + % to control ([2]; corn, 1·10^−8% solution): 41%
